Publication PMC6104039 (Nature Communications, 2018)
“Also recorded” adds a separate entry of the source.

How the values were obtained:
[1] = tested on: HEK293 cells; experiment: Non-viable cells by propidium iodide staining and flow cytometry, 72 h; assay type: cell-based; settings: at or below 1 μM
Method: Lipid levels are expressed as a percentage of vehicle control levels. […] All graphs show combined data from two independent experiments, each with 3 (a) or 4 (b-d) separate cell treatments, mean ± SEM. Statistical significance in (b-d) was determined by t-tests adjusted for multiple comparisons, comparing all lipids (22 lipids tested in total) at each concentration to the control group; ^+P < 0.05; ^#P < 0.01; *P < 0.001

[2] = tested on: cortical neuron cultures; experiment: Live-cell ceramide synthase assay: deuterated ceramide from D7-dihydrosphingosine; settings: two hour pre-treatment
Method: Mouse cortical neurons were prepared from E16 pups[65] and seeded at 5 × 10^6 cells/well in poly-D-lysine coated six-well plates. Two weeks after seeding, neurons were pre-treated for 2 h with P053, then incubated for a further 1 h with 1 μM deuterated dihydrosphingosine (D7-dhSph). Lipid extraction and quantification of D7-ceramide using liquid chromatography-tandem mass spectrometry (LC-MS/MS)[34] is described below.
Targeted quantification of ceramide, HexCer, and SM species in primary neurons, HEK293 cells, mouse brain, and gastrocnemius muscle lipid extracts was performed by LC-MS/MS on a TSQ Access triple quadrupole mass spectrometer (Thermo Fisher Scientific)[69]. Lipids were separated on a 3 × 150 mm Agilent XDB-C8 column (5 μM pore size) with a 10 min isocratic chromatography run using methanol containing 0.2% formic acid as the mobile phase. Precursor ions were the precise [M + H] species for each lipid. […] Deuterated (D7) ceramides were detected as the corresponding m/z + 7 ions.

[3] = tested on: C57BL6/J mice; experiment: Hyperinsulinemic-euglycemic clamps; assay type: in vivo; settings: 5 mg/kg, chow or HFD
Method: At 5 weeks of diet/drug treatment, mice underwent surgery to implant catheters into the left carotid artery and right jugular vein. Catheters were flushed every 1–2 days with heparinised saline to maintain patency. Approximately 6–8 days post surgery, and after a ~5 h fast, a hyperinsulinemic-euglycemic clamp was conducted. Mice were conscious, unrestrained and were not handled during the procedure to minimize stress. At −90 min, a primed (5 μCi) continuous infusion (0.05 μCi/min) of [3,^3H]-glucose (PerkinElmer) was commenced. Samples were collected at −30, −20, −10 and 0 min for basal glucose turnover (Rd) determination. […] Once blood glucose was stable, four sequential samples were taken to determine insulin-stimulated glucose turnover. A bolus of 2[^14C]deoxyglucose (10 μCi; PerkinElmer) was then administered and blood sampled at 2, 5, 10, 15, 20 and 30 min, prior to collection of muscles for determination of glucose uptake.

[4] = Detection of P053-phosphate in plasma of dosed mice, LC-MS/MS; assay type: in vivo; settings: 5 mg/kg/day for 6 weeks
Method: LC-MS/MS was performed on a TSQ Quantum Access triple quadrupole mass spectrometer in positive ion mode, coupled to an Accela UPLC system (Thermo Scientific). Extracts (20 μL) were separated on a 2 × 100 mm Eclipse XDB-C8 column with 1.8 μm particle size (Agilent Technologies), using a 7.5 min binary HPLC gradient: 0 min, 70% B ([…]); 1.5 min, 70% B; 3.5 min, 95% B; 4 min, 95% B; 4.5 min, 70% B; 7.5 min 70% B. Mobile phase A: 2 mM ammonium formate/1% formic acid in water; mobile phase B: 1 mM ammonium formate/1% formic acid in methanol. The flow rate was 0.4 mL min^−1, increasing to 0.5 mL min^−1 from 5–7 min, and column oven 30 °C. […] Visualisation and quantification of peaks was performed using Thermo Fisher’s XCalibur software v2.2.
Supplementary Figure 8. P053 is not phosphorylated in situ or in vivo. (a-b) HEK293 cells […]
LC-MS/MS analysis. Chromatograms for (a) FTY720 and its phosphate, and (b) P053 and its putative phosphate are shown. […]
mg/kg/day for 6 weeks, corresponding to a plasma concentration of ~300 nM. No peak is […]
(1 picture or pasted object on this page, not shown here)

[5] = tested on: permeabilised extensor digitorum longus muscle fibres; experiment: Respiratory complex activities in permeabilized extensor digitorum longus muscle fibres; assay type: in vivo, mice; settings: three weeks, 5 mg/kg
Method: Permeabilized extensor digitorum longus (EDL) fibres were prepared and mitochondrial function analyzed according to published protocols with some modifications[71],[72]. Briefly, EDL muscles were dissected tendon-to-tendon into ice-cold isolation buffer A (10 mM Ca-EGTA buffer, 20 mM imidazole, 20 mM taurine, 49 mM K-MES, 3 mM K2HPO4, 9.5 mM MgCl2, 5.7 mM ATP, 15 mM phosphocreatine, 1 μM leupeptin, pH 7.1) and fibres were prepared immediately. Fibre bundles (~3 mg wet weight) were treated with saponin (50 μg/mL) for 20 min at 4 °C and subsequently washed in cold respiration medium B (0.5 mM EGTA, 3 mM MgCl2.6H2O, 20 mM taurine, 10 mM KH2PO4, 20 mM HEPES, 0.1% BSA, 15 mM potassium-lactobionate, 110 mM mannitol, 0.3 mM dithiothreitol, pH 7.1). […] Fibres were recovered after polarography and results were expressed as nmoles of O2/min/mg of tissue. Mitochondrial membrane integrity was verified by cytochrome c release test[71],[72].

C[C@@](N)(CO)CCc1ccc(OCc2ccc(Cl)c(Cl)c2)cc1 [P053, (S)-2-amino-4-(4-(3,4-dichlorobenzyloxy)phenyl)-2-methylbutan-1-ol]
HEK293 cell viability [1]: no effect
de novo C18:0 ceramide synthesis from deuterated dihydrosphingosine [2]: dose-dependent inhibition
glucose infusion rate, peripheral glucose disposal, insulin-stimulated glucose uptake in SkM [3]: no impact
phosphate of the compound in plasma of mice [4]: only background signal is detected; also recorded: not detected
complex II activity [5]: trend for an increase
respiratory activity with complex I and IV substrates [5]: significant increase
